US9545120B2, “Method of lowering glycemic index of foods” (BASF SE, priority 2002, dated 2017)
pIC50: −log10 of the molar value. Read-outs that look alike come from different tables or passages of the source.

Key:
[1] = biological target: T1, Alpha-glucosidase Type 1 from bakers yeast (Saccharomyces cerevisiae, UniProt P53341); experiment: Alpha-glucosidase assay; format: biochemical; conditions: for remaining activity at 15.6 µg/mL / remaining activity at 7.8 µg/mL / remaining activity at 31.3 µg/mL / remaining activity at 62.5 µg/mL / remaining activity at 125 µg/mL / remaining activity at 250 µg/mL / remaining activity at 500 µg/mL: read-out: alpha-glucosidase % control; for inhibition at 15.6 µg/mL / inhibition at 7.8 µg/mL / inhibition at 31.3 µg/mL / inhibition at 62.5 µg/mL / inhibition at 125 µg/mL / inhibition at 250 µg/mL / inhibition at 500 µg/mL: read-out: alpha-glucosidase % inhibition; for inhibition at 1600 µM: read-out: % inhibition of alpha-glucosidase at flavonoid concentration 1.6 mM (454 μg/mL)
T1 construct: purchased Sigma
T1 sequence (P53341 whole entry): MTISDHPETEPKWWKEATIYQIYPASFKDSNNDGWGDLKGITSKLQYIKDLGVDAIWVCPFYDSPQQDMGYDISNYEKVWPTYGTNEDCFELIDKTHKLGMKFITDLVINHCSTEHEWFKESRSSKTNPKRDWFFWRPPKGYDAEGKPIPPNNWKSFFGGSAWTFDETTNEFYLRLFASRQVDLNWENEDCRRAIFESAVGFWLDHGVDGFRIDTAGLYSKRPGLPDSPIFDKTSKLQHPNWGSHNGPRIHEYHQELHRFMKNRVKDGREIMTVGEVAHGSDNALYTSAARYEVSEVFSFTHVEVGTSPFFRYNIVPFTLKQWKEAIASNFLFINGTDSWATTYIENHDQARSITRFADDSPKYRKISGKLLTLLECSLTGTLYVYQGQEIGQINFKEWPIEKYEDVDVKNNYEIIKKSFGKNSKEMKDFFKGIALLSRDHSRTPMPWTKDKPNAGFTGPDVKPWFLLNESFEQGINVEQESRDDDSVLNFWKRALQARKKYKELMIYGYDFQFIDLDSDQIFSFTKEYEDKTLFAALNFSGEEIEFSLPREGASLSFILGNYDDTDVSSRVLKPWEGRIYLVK
Description: Alpha-glucosidase Type 1 from bakers yeast, substrate (p-nitrophenyl-alpha-D-glucopyranoside) and a control inhibitor, castanospermine were purchased from Sigma. For the assay, enzyme dissolved in 50 mM acetate buffer, pH 4.5 was incubated for 30 min, at 37° C. in the presence of substrate and in the presence vs. absence of inhibitors (flavonoids or castanospermine at various concentrations). The reaction was carried out in 50 mM acetate buffer, pH 4.5. Final concentration of alpha glucosidase was 0.2 U/ml; final concentration of the substrate was 2 mM. Flavonoids concentrations ranged from 7.8 to 500 μg/ml and castanospermine was used at final concentration 1 μg/ml. The reaction was stopped by addition of 0.2 M Na2CO3 and absorbance was measured at 405 nm. Background absorbance (without enzyme) was subtracted for every flavonoid concentration used. The inhibitory activity was expressed as 100 minus relative absorbance difference between tested samples and controls.

[2] = biological target: T2, Alpha-amylase from porcine pancreas (Sus scrofa, UniProt P00690); experiment: Alpha-amylase assay; format: biochemical; conditions: for remaining activity at 11.7 µg/mL / remaining activity at 23.4 µg/mL / remaining activity at 46.9 µg/mL / remaining activity at 93.8 µg/mL / remaining activity at 187.5 µg/mL / remaining activity at 375 µg/mL / remaining activity at 750 µg/mL: read-out: alpha-amylase % control; for inhibition at 11.7 µg/mL / inhibition at 23.4 µg/mL / inhibition at 46.9 µg/mL / inhibition at 93.8 µg/mL / inhibition at 187.5 µg/mL / inhibition at 375 µg/mL / inhibition at 750 µg/mL: read-out: alpha-amylase % inhibition; for inhibition at 1600 µM: read-out: % inhibition of alpha-amylase at flavonoid concentration 1.6 mM (454 μg/mL)
T2 construct: purchased Sigma; host or cells: porcine pancreas
T2 sequence (P00690 16-511): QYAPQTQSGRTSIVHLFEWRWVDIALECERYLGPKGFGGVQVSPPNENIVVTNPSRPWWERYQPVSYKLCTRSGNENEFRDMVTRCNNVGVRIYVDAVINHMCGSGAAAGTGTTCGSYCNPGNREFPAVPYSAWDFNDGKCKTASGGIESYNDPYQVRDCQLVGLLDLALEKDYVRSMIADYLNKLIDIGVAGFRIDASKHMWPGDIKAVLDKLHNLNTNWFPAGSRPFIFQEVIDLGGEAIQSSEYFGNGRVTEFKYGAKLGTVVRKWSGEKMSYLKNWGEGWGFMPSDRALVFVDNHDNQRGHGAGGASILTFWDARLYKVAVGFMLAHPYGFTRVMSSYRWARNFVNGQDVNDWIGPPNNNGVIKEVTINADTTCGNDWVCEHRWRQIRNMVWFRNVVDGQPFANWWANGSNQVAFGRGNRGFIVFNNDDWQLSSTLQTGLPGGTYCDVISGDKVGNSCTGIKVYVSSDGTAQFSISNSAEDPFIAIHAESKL
Description: Alpha-amylase from porcine pancreas, alpha-glucosidase, glucoamylase and substrate (p-nitrophenyl-alpha-maltopentaoside) were purchased from Sigma. In the reaction, alpha-amylase (endo-type enzyme) hydrolysed the substrate into shorter chain glucosides and the auxiliary enzymes (exo-type enzymes) released the chromophore (p-nitrophenol) from the amylase-hydrolyzed malto-polysaccharides. For the assay, alpha-amylase (7.5 U/ml) was added to a substrate solution containing 1 mM p-nitrophenyl-alpha-maltopentaoside, 15 U/ml of alpha-glucosidase and 25 U/ml of glucoamylase in 50 mM HEPES buffer (pH 7.3) containing 3 mM CaCl2 and 40 mM NaCl. The reaction was carried out for 15 min at 37° C. in the presence vs. absence of flavonoids at concentrations ranged from 11.7 to 750 μg/ml. At the end of the incubation, 0.2 M borate, pH 9.8 was added to inactivate the enzymes and liberated p-nitrophenol was measured spectrophotometrically at 405 nm. The relative activity of alpha-amylase was calculated by subtracting reaction blanks containing the substrate, the two axillary enzymes and flavonoids at the same concentrations. The inhibitory activity was expressed as 100 minus relative absorbance difference between tested samples and controls.

SMILES | remaining activity at 15.6 µg/mL ([1]; flavonoid conc. 15.6 μg/mL) | inhibition at 15.6 µg/mL ([1]; flavonoid conc. 15.6 μg/mL) | inhibition at 1600 µM [1] | remaining activity at 7.8 µg/mL [1] | remaining activity at 31.3 µg/mL [1] | remaining activity at 62.5 µg/mL [1] | remaining activity at 125 µg/mL [1] | remaining activity at 250 µg/mL [1] | remaining activity at 500 µg/mL [1] | inhibition at 7.8 µg/mL [1] | inhibition at 31.3 µg/mL [1] | inhibition at 62.5 µg/mL [1] | inhibition at 125 µg/mL [1] | inhibition at 250 µg/mL [1] | inhibition at 500 µg/mL [1] | remaining activity at 11.7 µg/mL ([2]; flavonoid conc. 11.7 μg/ml) | inhibition at 11.7 µg/mL ([2]; flavonoid conc. 11.7 μg/ml) | remaining activity at 23.4 µg/mL ([2]; flavonoid conc. 23.4 μg/ml) | inhibition at 23.4 µg/mL ([2]; flavonoid conc. 23.4 μg/ml) | inhibition at 1600 µM [2] | other results
O=c1cc(-c2ccc(O)c(O)c2)oc2cc(O)cc(O)c12 [Luteolin, luteolin] | 60.2% | 39.8% | 96% | 81.4% | 65.8% | 45.7% | 17.9% | 19.1% | 0% | 18.6% | 34.2% | 54.3% | 82.1% | 80.9% | 100% | 0% | 100% | 0% | 100% | 100% | IC50 ([1]; read-out: IC50 concentration, alpha-glucosidase (converted)): 180 µM; remaining activity at 46.9 µg/mL ([2]; flavonoid conc. 46.9 μg/ml): 0%; inhibition at 46.9 µg/mL ([2]; flavonoid conc. 46.9 μg/ml): 100%; remaining activity at 93.8 µg/mL ([2]; flavonoid conc. 93.8 μg/ml): 0%; inhibition at 93.8 µg/mL ([2]; flavonoid conc. 93.8 μg/ml): 100%; remaining activity at 187.5 µg/mL ([2]; flavonoid conc. 187.5 μg/ml): 0%; inhibition at 187.5 µg/mL ([2]; flavonoid conc. 187.5 μg/ml): 100%; remaining activity at 375 µg/mL ([2]; flavonoid conc. 375.0 μg/ml): 0%; inhibition at 375 µg/mL ([2]; flavonoid conc. 375.0 μg/ml): 100%; remaining activity at 750 µg/mL ([2]; flavonoid conc. 750.0 μg/ml): 0%; inhibition at 750 µg/mL ([2]; flavonoid conc. 750.0 μg/ml): 100%; inhibition of alpha-amylase at the lowest concentration tested ([2]; lowest concentration tested (11.7 μg/ml)): inhibiting the enzyme completely; IC50 ([2]; read-out: IC50 concentration, alpha-amylase (converted)): 20.3 µM
O=c1cc(-c2ccc(O)cc2)oc2cc(O)cc(O)c12 [Apigenin, apigenin] | 74.3% | 25.7% | 100% | 73.5% | 68.4% | 50.4% | 29.5% | 0% | 0% | 26.5% | 31.6% | 49.6% | 70.5% | 100% | 100% | 81% | 19% | 0% | 100% | 100% | pIC50 [1]: 3.66; remaining activity at 46.9 µg/mL ([2]; flavonoid conc. 46.9 μg/ml): 0%; inhibition at 46.9 µg/mL ([2]; flavonoid conc. 46.9 μg/ml): 100%; remaining activity at 93.8 µg/mL ([2]; flavonoid conc. 93.8 μg/ml): 0%; inhibition at 93.8 µg/mL ([2]; flavonoid conc. 93.8 μg/ml): 100%; remaining activity at 187.5 µg/mL ([2]; flavonoid conc. 187.5 μg/ml): 0%; inhibition at 187.5 µg/mL ([2]; flavonoid conc. 187.5 μg/ml): 100%; remaining activity at 375 µg/mL ([2]; flavonoid conc. 375.0 μg/ml): 0%; inhibition at 375 µg/mL ([2]; flavonoid conc. 375.0 μg/ml): 100%; remaining activity at 750 µg/mL ([2]; flavonoid conc. 750.0 μg/ml): 0%; inhibition at 750 µg/mL ([2]; flavonoid conc. 750.0 μg/ml): 100%
O[C@H]1[C@H](O)[C@@H](O)CN2CC[C@H](O)[C@H]12 [castanospermine, reference compound] | – | – | – | – | – | – | – | – | – | – | – | – | – | – | – | – | – | – | – | – | activity of alpha-glucosidase reduced by ([1]; 1 μg/ml, control inhibitor): 32%
COc1cc(-c2cc(=O)c3c(O)cc(O)cc3o2)cc(OC)c1O [Tricin, tricin] | – | – | 100% | 97.7% | 15.6% | 6.4% | 0% | 0% | 0% | 0.3% | 84.4% | 93.6% | 100% | 100% | 100% | – | – | – | – | 100% | pIC50 [1]: 4.44; remaining activity at 15.6 µg/mL [1]: 26.4%; inhibition at 15.6 µg/mL [1]: 73.6%; pIC50 [2]: 4.52; remaining activity at 11.7 µg/mL [2]: 40.9%; remaining activity at 23.4 µg/mL [2]: 18.2%; remaining activity at 46.9 µg/mL [2]: 0%; remaining activity at 93.8 µg/mL [2]: 0%; remaining activity at 187.5 µg/mL [2]: 0%; remaining activity at 375 µg/mL [2]: 0%; remaining activity at 750 µg/mL [2]: 0%; inhibition at 11.7 µg/mL [2]: 59.1%; inhibition at 23.4 µg/mL [2]: 81.8%; inhibition at 46.9 µg/mL [2]: 100%; inhibition at 93.8 µg/mL [2]: 100%; inhibition at 187.5 µg/mL [2]: 100%; inhibition at 375 µg/mL [2]: 100%; inhibition at 750 µg/mL [2]: 100%
